Assay results published in patent US20240400555A1 (Initial Therapeutics, Inc., priority 2023, published 2024).
Read-outs that look alike come from different tables or passages of the source.

Tested on: MV-4-11 cells
Assay: Cell Viability Assay in MV-4-11 Cells
Assay type: cell-based
Conditions: Homo sapiens, MV4-11, 72 h
Outline: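 Luminescent ATP read-out (CellTiter-Glo) after 72 h compound treatment of MV-4-11 leukaemia cells (7,000 per well, IMDM plus 10% FBS). Values expressed relative to DMSO control and derived by four-parameter non-linear regression.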

[1] = MV-4-11 cells, 72 h, Cell-Titer Glo, read-out: IC50

Row | Structure (SMILES) | IC50 [µM] | IC50 [1] [µM]
1 | Cn1cc(-c2ccc(C(=O)N(c3nccc4sc(-c5cnn(CC(N)=O)c5)cc34)[C@@H]3CCCNC3)c(F)c2)nn1 [Example 489, N-[2-[1-(2-amino-2-oxo-ethyl)pyrazol-4-yl]thieno[3,2-c]pyridin-4-yl]-2-fluoro-4-(1-methyltriazol-4-yl)-N-[(3R)-3-piperidyl]benzamide] | > 10 | 
2 | Cn1cc(-c2ccc(C(=O)N(c3nccc4cc(-c5cccc(CO)c5)ccc34)[C@@H]3CCCNC3)c(F)c2)nn1 [Example 490, (R)-2-fluoro-N-(6-(3-(hydroxymethyl)phenyl)isoquinolin-1-yl)-4-(1-methyl-1H-1,2,3-triazol-4-yl)-N-(piperidin-3-yl)benzamide] |  | 0.3
3 | Cn1cc(-c2ccc(C(=O)N(c3nccc4cc(-c5ccnc(N)c5)ccc34)[C@@H]3CCCNC3)c(F)c2)nn1 [Example 491, (R)—N-(6-(2-aminopyridin-4-yl)isoquinolin-1-yl)-2-fluoro-4-(1-methyl-1H-1,2,3-triazol-4-yl)-N-(piperidin-3-yl)benzamide] |  | 0.46
4 | Cn1cc(-c2ccc(C(=O)N(c3nccc4cc(-c5cnn(CCO)c5)ccc34)[C@@H]3CCCNC3)c(F)c2)nn1 [Example 492, (R)-2-fluoro-N-(6-(1-(2-hydroxyethyl)-1H-pyrazol-4-yl)isoquinolin-1-yl)-4-(1-methyl-1H-1,2,3-triazol-4-yl)-N-(piperidin-3-yl)benzamide] |  | 0.87
5 | Cn1cc(-c2ccc(C(=O)N(c3nccc4cc(-c5ccccc5O)ccc34)[C@@H]3CCCNC3)c(F)c2)nn1 [Example 493, (R)-2-fluoro-N-(6-(2-hydroxyphenyl)isoquinolin-1-yl)-4-(1-methyl-1H-1,2,3-triazol-4-yl)-N-(piperidin-3-yl)benzamide] |  | 0.53
6 | Cn1cc(-c2ccc(C(=O)N(c3nccc4cc(/C=C/C(=O)O)ccc34)[C@@H]3CCCNC3)c(F)c2)nn1 [Example 494, (R,E)-3-(1-(2-fluoro-4-(1-methyl-1H-1,2,3-triazol-4-yl)-N-(piperidin-3-yl)benzamido)isoquinolin-6-yl)acrylic acid] |  | > 10
7 | Cn1cc(-c2ccc(C(=O)N(c3nccc4cc(-c5cccc(O)c5)ccc34)[C@@H]3CCCNC3)c(F)c2)nn1 [Example 495, (R)-2-fluoro-N-(6-(3-hydroxyphenyl)isoquinolin-1-yl)-4-(1-methyl-1H-1,2,3-triazol-4-yl)-N-(piperidin-3-yl)benzamide] |  | 0.66
8 | Cn1cc(-c2ccc(C(=O)N(c3nccc4cc(/C=C/C(N)=O)ccc34)[C@@H]3CCCNC3)c(F)c2)nn1 [Example 496, (R,E)-N-(6-(3-amino-3-oxoprop-1-en-1-yl)isoquinolin-1-yl)-2-fluoro-4-(1-methyl-1H-1,2,3-triazol-4-yl)-N-(piperidin-3-yl)benzamide] |  | 5.4
9 | Cc1cccc2ccnc(N(C(=O)N3CCCC(CCC(=O)Nc4ccncc4)C3)[C@@H]3CCCNC3)c12 (stereo partly drawn) [Example 497, N-(8-methylisoquinolin-1-yl)-3-(3-oxo-3-(pyridin-4-ylamino)propyl)-N—((R)-piperidin-3-yl)piperidine-1-carboxamide] |  | 2
10 | Cc1cccc2ccnc(N(C(=O)N3CCCC(CCC(=O)Nc4ccc5[nH]ncc5c4)C3)[C@@H]3CCCNC3)c12 (stereo partly drawn) [Example 498, 3-(3-((1H-indazol-5-yl)amino)-3-oxopropyl)-N-(8-methylisoquinolin-1-yl)-N—((R)-piperidin-3-yl)piperidine-1-carboxamide] |  | 2
11 | Cc1cccc2ccnc(N(C(=O)N3CCCC(CCC(=O)Nc4ccc5cn[nH]c5c4)C3)[C@@H]3CCCNC3)c12 (stereo partly drawn) [Example 499, 3-(3-((1H-indazol-6-yl)amino)-3-oxopropyl)-N-(8-methylisoquinolin-1-yl)-N—((R)-piperidin-3-yl)piperidine-1-carboxamide] |  | 1.7
12 | O=C(O)/C=C/c1cc2c(N(C(=O)c3ccc(-n4nnc5cccnc54)cc3F)[C@@H]3CCCNC3)nccc2s1 [Example 500, (E)-3-[4-[[2-fluoro-4-(triazolo[4,5-b]pyridin-3-yl)benzoyl]-[(3R)-3-piperidyl]amino]thieno[3,2-c]pyridin-2-yl]prop-2-enoic acid] |  | > 10
13 | CCOC(=O)/C=C/c1cc2c(N(C(=O)c3ccc(-n4nnc5cccnc54)cc3F)[C@@H]3CCCNC3)nccc2s1 [Example 501, ethyl (E)-3-[4-[[2-fluoro-4-(triazolo[4,5-b]pyridin-3-yl)benzoyl]-[(3R)-3-piperidyl]amino]thieno[3,2-c]pyridin-2-yl]prop-2-enoate] |  | 0.8
14 | O=C(O)c1nc(-c2cc3c(N(C(=O)c4ccc(-n5nnc6cccnc65)cc4F)[C@@H]4CCCNC4)nccc3s2)cs1 [Example 502, 4-[4-[[2-fluoro-4-(triazolo[4,5-b]pyridin-3-yl)benzoyl]-[(3R)-3-piperidyl]amino]thieno[3,2-c]pyridin-2-yl]thiazole-2-carboxylic acid] |  | 2.1
15 | O=C(c1ccc(-n2nnc3cccnc32)cc1F)N(c1nccc2sc(CCc3ccncc3)cc12)[C@@H]1CCCNC1 [Example 503, 2-fluoro-N-[(3R)-3-piperidyl]-N-[2-[2-(4-pyridyl)ethyl]thieno[3,2-c]pyridin-4-yl]-4-(triazolo[4,5-b]pyridin-3-yl)benzamide] |  | 2.3
16 | Cn1cc(-c2ccc(C(=O)N(c3nccc4sc(/C=C\CO)cc34)[C@@H]3CCCNC3)c(F)c2)nn1 [Example 504, (R,Z)-2-fluoro-N-(2-(3-hydroxyprop-1-en-1-yl)thieno[3,2-c]pyridin-4-yl)-4-(1-methyl-1H-1,2,3-triazol-4-yl)-N-(piperidin-3-yl)benzamide] |  | 0.81

Row | Structure (SMILES) | IC50 [µM] | IC50 [1] [µM]
17 | Cn1cc(-c2ccc(C(=O)N(c3nccc4cc(-c5ccncc5)sc34)[C@@H]3CCCNC3)c(F)c2)nn1 [Example 505, 2-fluoro-4-(1-methyltriazol-4-yl)-N-[(3R)-3-piperidyl]-N-[2-(4-pyridyl)thieno[2,3-c]pyridin-7-yl]benzamide] |  | 0.25
18 | Cn1cc(-c2ccc(C(=O)N(c3nccc4sc(Br)cc34)[C@@H]3CCCNC3)c(F)c2)nn1 [Example 506, N-(2-bromothieno[3,2-c]pyridin-4-yl)-2-fluoro-4-(1-methyltriazol-4-yl)-N-[(3R)-3-piperidyl] benzamide] |  | 0.71
19 | Cn1cc(-c2ccc(C(=O)N(c3nccc4sc(-c5ccccn5)cc34)[C@@H]3CCCNC3)c(F)c2)nn1 [Example 507, 2-fluoro-4-(1-methyltriazol-4-yl)-N-[(3R)-3-piperidyl]-N-[2-(2-pyridyl)thieno [3,2-c]pyridin-4-yl] benzamide] |  | 0.61
20 | Cn1cc(-c2ccc(C(=O)N(c3nccc4sc(-c5cccnc5)cc34)[C@@H]3CCCNC3)c(F)c2)nn1 [Example 508, 2-fluoro-4-(1-methyltriazol-4-yl)-N-[(3R)-3-piperidyl]-N-[2-(3-pyridyl)thieno [3,2-c]pyridin-4-yl] benzamide] |  | 0.3
21 | Cn1cc(-c2ccc(C(=O)N(c3nccc4sc(-c5cccc(N)c5)cc34)[C@@H]3CCCNC3)c(F)c2)nn1 [Example 509, N-[2-(3-aminophenyl)thieno[3,2-c]pyridin-4-yl]-2-fluoro-4-(1-methyltriazol-4-yl)-N-[(3R)-3-piperidyl]benzamidezamide] |  | 0.52
22 | Cn1cc(-c2ccc(C(=O)N(c3nccc4sc(-c5ccccc5)cc34)[C@@H]3CCCNC3)c(F)c2)nn1 [Example 510, 2-fluoro-4-(1-methyltriazol-4-yl)-N-(2-phenylthieno[3,2-c]pyridin-4-yl)-N-[(3R)-3-piperidyl]benzamide] |  | 0.26
23 | Cn1cc(-c2ccc(C(=O)N(c3nccc4sc(-c5ccsc5)cc34)[C@@H]3CCCNC3)c(F)c2)nn1 [Example 511, 2-fluoro-4-(1-methyltriazol-4-yl)-N-[(3R)-3-piperidyl]-N-[2-(3-thienyl)thieno[3,2-c]pyridin-4-yl]benzamide] |  | 0.25
24 | Cc1cccc2ccnc(N(C(=O)c3cccc(C#CCCO)c3)[C@@H]3CCCNC3)c12 [Example 512, (R)-3-(4-hydroxybut-1-yn-1-yl)-N-(8-methylisoquinolin-1-yl)-N-(piperidin-3-yl)benzamide] |  | 1.1
25 | Cc1cccc2ccnc(N(C(=O)c3cccc(C#CCCCO)c3)[C@@H]3CCCNC3)c12 [Example 513, (R)-3-(5-hydroxypent-1-yn-1-yl)-N-(8-methylisoquinolin-1-yl)-N-(piperidin-3-yl) benzamide] |  | 0.54
26 | Cc1cccc2ccnc(N(C(=O)c3cccc(C#CCCCCO)c3)[C@@H]3CCCNC3)c12 [Example 514, (R)-3-(6-hydroxyhex-1-yn-1-yl)-N-(8-methylisoquinolin-1-yl)-N-(piperidin-3-yl)benzamide] |  | 0.89
27 | Cc1cccc2ccnc(N(C(=O)c3cccc(C#CCCN)c3)[C@@H]3CCCNC3)c12 [Example 515, (R)-3-(4-aminobut-1-yn-1-yl)-N-(8-methylisoquinolin-1-yl)-N-(piperidin-3-yl)benzamide] |  | 2.1
28 | Cc1cccc2ccnc(N(C(=O)c3cccc(C#CCCC(=O)Nc4ccncc4)c3)[C@@H]3CCCNC3)c12 [Example 516, (R)—N-(8-methylisoquinolin-1-yl)-3-(5-oxo-5-(pyridin-4-ylamino)pent-1-yn-1-yl)-N-(piperidin-3-yl)benzamide] | 0.75 | 
29 | Cc1cccc2ccnc(N(C(=O)c3cccc(C#CCCC(=O)NCc4ccncc4)c3)[C@@H]3CCCNC3)c12 [Example 517, (R)—N-(8-methylisoquinolin-1-yl)-3-(5-oxo-5-((pyridin-4-ylmethyl)amino)pent-1-yn-1-yl)-N-(piperidin-3-yl)benzamide] |  | 7.3
30 | Cc1cccc2ccnc(N(C(=O)c3cccc(C#CCCC(=O)N4CCC(O)C4)c3)[C@@H]3CCCNC3)c12 (stereo partly drawn) [Example 518, 3-(5-(3-hydroxypyrrolidin-1-yl)-5-oxopent-1-yn-1-yl)-N-(8-methylisoquinolin-1-yl)-N—((R)-piperidin-3-yl)benzamide] |  | 0.94
31 | Cc1cccc2ccnc(N(C(=O)c3cccc(C#CCCC(=O)N4CCOCC4)c3)[C@@H]3CCCNC3)c12 [Example 519, (R)—N-(8-methylisoquinolin-1-yl)-3-(5-morpholino-5-oxopent-1-yn-1-yl)-N-(piperidin-3-yl)benzamide] |  | 0.43
